Measured values from patent publication US8658690B2, “Use of novel compounds from fruiting body of Antrodia camphorata for treating an inflammatory disorder” (Well Shine Biotechnology Development Co., Ltd., priority 2008, dated 2014).
In brackets after ≈: the same amount, converted by molar mass.

Legend:
Type in all cases: cell-based, murine
[1] = system: RAW264.7 macrophage cells; assay: Cell viability by MTT method in RAW264.7 cells treated with compounds for 48 hours (no LPS); conditions: RAW264.7, no LPS; for Cell viability (%): mean ± SD
Description: (§1) To evaluate the immunomodulatory effects of these new compounds, the in vitro production of cytokines in RA W264.7 cells were treated without or with the compounds of the invention at different concentrations for 48 hours. The supernatants were collected for TNF-α assay, and cells were collected for viability analysis by MTT method.

TNF-α [2] = assay: Spontaneous TNF-α secretion by RAW264.7 cells, sandwich ELISA of supernatants; conditions: 48 hours; for TNF-α (pg/mL) secretion: spontaneous, control 88 ± 45
Description: (§2) The cytokine levels in culture supernatants were measured by sandwich ELISA methods as described by Chen and Lin (Chen, M. L. et al., Int. Arch. Allergy Immunol. 2007, 143, 21-30). More specifically, the anti-cytokine antibodies (PharMingen, San Diego, Calif.) were coated in the 96-well plates (Nunc, Roskilde, Denmark) after overnight incubation at 4° C. and having been blocked with 1% BSA PBS buffer for 30 min. The samples and standards (recombinant mouse cytokines, PharMingen) were added to the 96-well plates for 2 hours incubation. The biotin-conjugated antibodies (biotinylated rat anti-mouse cytokine monoclonal antibodies, PharMingen) were added and incubated. After washing, streptavidin-conjugated peroxidase was added for 1 hour. The substrates, 2,2′-azino-bis-3-ethyl-benzthiazoline-6-sulfonic acid (ABTS, Sigma), were added to each well for 20 min. The plates were read in a microplate autoreader (Microplate autoreader; Bio-Tek Instruments, Winooski, Vt.) at 405 nm.
as §1

[3] = system: LPS-stimulated RAW264.7 macrophage cells; assay: Cell viability by MTT method in LPS-stimulated RAW264.7 cells; conditions: 30 min pretreatment then 50 ng/mL LPS 48 hours
Description: (§3) IL-6, a proinflammatory cytokine which is a useful marker of infection, is secreted by macrophages in many infectious and inflammatory states, including cardiac surgery, cardiogenic shock, coronary bypass and bacteria sepsis (Kantar, M. et al., Eur. J. Pediatr. 2000, 159, 156-157). Serum concentration of IL-6 has been reported to correlate with disease severity (Pathan, N. et al., Lancet 2004, 363, 203-209). The productions of IL-6 from LPS-stimulated macrophages were measured to evaluate the anti-inflammation effect of the compounds. The cells were pretreated with compounds isolated from A. camphorata for 30 min and then stimulated with 50 ng/mL LPS for 48 hours. The supernatants were collected for TNF-α and IL-6 assay, and the cells were collected for viability analysis by MTT method.

TNF-α [4] = assay: TNF-α secretion in LPS-stimulated RAW264.7 cells, ELISA; conditions: 50 ng/mL LPS 48 hours, LPS control 3.81 ± 0.93
Description: as §2, §3

IL-6 = IL-6 secretion in LPS-stimulated RAW264.7 cells, ELISA; conditions: for IL-6 (pg/mL) secretion: LPS control 238 ± 86; for IC50: Mus musculus, LPS-stimulated RAW264.7, 50 ng/mL LPS 48 hours, highest tested concentration 10 μg/mL, read-out: IC50 of IL-6 production
Description: as §2, §3

[5] = 0.5 μg/mL, 50 ng/mL LPS 48 hours
[6] = 10 μg/mL, 50 ng/mL LPS 48 hours

Compound	Cell viability (%) ([1]; 0.5 μg/mL)	Cell viability (%) ([1]; 1 μg/mL)	Cell viability (%) ([1]; 2 μg/mL)	Cell viability (%) ([1]; 5 μg/mL)	Cell viability (%) ([1]; 10 μg/mL)	TNF-α (pg/mL) secretion (TNF-α [2]; 0.5 μg/mL)	TNF-α (pg/mL) secretion (TNF-α [2]; 1 μg/mL)	TNF-α (pg/mL) secretion (TNF-α [2]; 2 μg/mL)	TNF-α (pg/mL) secretion (TNF-α [2]; 5 μg/mL)	TNF-α (pg/mL) secretion (TNF-α [2]; 10 μg/mL)	Cell viability (%) ([3]; 0.5 μg/mL)	Cell viability (%) ([3]; 1 μg/mL)	Cell viability (%) ([3]; 5 μg/mL)	Cell viability (%) ([3]; 10 μg/mL)	TNF-α (ng/mL) secretion (TNF-α [4]; 0.5 μg/mL)	TNF-α (ng/mL) secretion (TNF-α [4]; 1 μg/mL)	TNF-α (ng/mL) secretion (TNF-α [4]; 5 μg/mL)	TNF-α (ng/mL) secretion (TNF-α [4]; 10 μg/mL)	IL-6 (pg/mL) secretion (IL-6; [5])	IL-6 (pg/mL) secretion (IL-6; 1 μg/mL, 50 ng/mL LPS 48 hours)	also measured
CC(C)=CCOc1ccc([C@@H]2C(=O)NC(=O)[C@H]2CC(C)C)cc1 (relative stereo) [Compound 1, trans-3-Isobutyl-4-[4-(3-methyl-2-butenyloxy)phenyl]pyrrolidine-2,5-dione]	103 ± 2%	101 ± 3%	108 ± 6%	100 ± 10%	99 ± 7%	117 ± 31 pg/mL	145 ± 44 pg/mL	183 ± 89 pg/mL	212 ± 60 pg/mL	188 ± 41 pg/mL	105 ± 3%	106 ± 4%	105 ± 3%	102 ± 4%	3.69 ± 0.39 ng/mL	3.92 ± 0.39 ng/mL	3.68 ± 0.25 ng/mL	3.65 ± 0.17 ng/mL	213 ± 88 pg/mL	211 ± 99 pg/mL	effect on cell viability (in words) [1]: without affecting cell viability; spontaneous TNF-α secretion by RAW264.7 cells (in words) (TNF-α [2]; 0.5˜5 μg/mL): significantly increased; IL-6 production in LPS-stimulated cells (in words) (IL-6; 50 ng/mL LPS 48 hours): significantly decreased; IL-6 (pg/mL) secretion (IL-6; 5 μg/mL, 50 ng/mL LPS 48 hours): 144 ± 64 pg/mL; IL-6 (pg/mL) secretion (IL-6; [6]): 103 ± 61 pg/mL; IC50 (IL-6): 10 µg/mL (≈ 31.7 µM)
CC(C)C[C@@H]1C(=O)N(O)C(=O)[C@H]1c1ccc(O)cc1 (relative stereo) [Compound 2, trans-1-Hydroxy-3-(4-hydroxyphenyl)-4-isobutylpyrrolidine-2,5-dione]	106 ± 7%	100 ± 5%	100 ± 5%	94 ± 6%	90 ± 4 %	108 ± 28 pg/mL	97 ± 13 pg/mL	105 ± 23 pg/mL	96 ± 8 pg/mL	128 ± 70 pg/mL	110 ± 5 %	111 ± 6 %	111 ± 8 %	109 ± 2 %	3.34 ± 0.58 ng/mL	4.04 ± 0.46 ng/mL	4.76 ± 0.65 ng/mL	3.66 ± 0.67 ng/mL	216 ± 102 pg/mL	224 ± 110 pg/mL	IL-6 (pg/mL) secretion (IL-6; 5 μg/mL, 50 ng/mL LPS 48 hours): 210 ± 96 pg/mL; IL-6 (pg/mL) secretion (IL-6; [6]): 191 ± 68 pg/mL; IC50 (IL-6): 54 µg/mL (≈ 205 µM)
CC(C)C[C@H]1C(=O)OC(=O)[C@H]1c1ccc(O)cc1 (relative stereo) [Compound 3, cis-3-(4-Hydroxyphenyl)-4-isobutyldihydrofuran-2,5-dione]	91 ± 9%	87 ± 8%	80 ± 9 %	72± 11 %	67 ± 15 %	55 ± 2 pg/mL	74 ± 7 pg/mL	68 ± 7 pg/mL	68 ± 26 pg/mL	77 ± 35 pg/mL	105 ± 6%	104 ± 6%	99 ± 3%	91 ± 4 %	3.17 ± 0.70 ng/mL	3.64 ± 0.84 ng/mL	3.88 ± 0.37 ng/mL	3.90 ± 0.10 ng/mL	214 ± 82 pg/mL	234 ± 109 pg/mL	IL-6 (pg/mL) secretion (IL-6; 5 μg/mL, 50 ng/mL LPS 48 hours): 185 ± 76 pg/mL; IL-6 (pg/mL) secretion (IL-6; [6]): 147 ± 53 pg/mL; IC50 (IL-6): 17 µg/mL (≈ 68.5 µM)
CC(C)CC1=C(c2ccc(O)cc2)C(=O)NC1=O [Compound 4, 3-(4-Hydroxyphenyl)-4-isobutyl-1H-pyrrole-2,5-dione]	97 ± 13%	99 ± 4%	97 ± 5%	94 ± 7%	81 ± 8 %	91 ± 38 pg/mL	83 ± 22 pg/mL	105 ± 13 pg/mL	118 ± 23 pg/mL	104 ± 25 pg/mL	105 ± 6%	103 ± 5%	97 ± 5%	92 ± 8%	2.98 ± 0.24 ng/mL	3.22 ± 0.35 ng/mL	3.72 ± 0.23 ng/mL	3.12 ± 0.61 ng/mL	194 ± 81 pg/mL	257 ± 40 pg/mL	IL-6 (pg/mL) secretion (IL-6; 5 μg/mL, 50 ng/mL LPS 48 hours): 195 ± 83 pg/mL; IL-6 (pg/mL) secretion (IL-6; [6]): 169 ± 63 pg/mL; IC50 (IL-6): 18 µg/mL (≈ 73.4 µM)
CC(C)CC1=C(c2ccc(O)cc2)C(=O)OC1=O [Compound 5, 3-(4-Hydroxyphenyl)-4-isobutylfuran-2,5-dione]	101 ± 7%	102 ± 5%	99 ± 6%	95 ± 9%	86 ± 8 %	100 ± 26 pg/mL	102 ± 30 pg/mL	90 ± 4 pg/mL	94 ± 19 pg/mL	106 ± 5 pg/mL	106 ± 4 %	105 ± 2 %	102 ± 2%	100 ± 3%	3.44 ± 0.31 ng/mL	4.06 ± 1.14 ng/mL	4.67 ± 1.09 ng/mL	3.63 ± 0.58 ng/mL	221 ± 102 pg/mL	227 ± 94 pg/mL	IL-6 (pg/mL) secretion (IL-6; 5 μg/mL, 50 ng/mL LPS 48 hours): 225 ± 68 pg/mL; IL-6 (pg/mL) secretion (IL-6; [6]): 215 ± 56 pg/mL; IC50 (IL-6): 96 µg/mL (≈ 390 µM)
COC(=O)/C(CC(C)C)=C(\C(=O)OC)c1ccc(O)cc1 [Compound 6, Dimethyl 2-(4-hydroxyphenyl)-3-isobutylmaleate]	100 ± 6%	99 ± 7%	102 ± 6%	95 ± 8%	96 ± 11%	100 ± 34 pg/mL	114 ± 41 pg/mL	90 ± 14 pg/mL	110 ± 22 pg/mL	116 ± 4 pg/mL	108 ± 6%	107 ± 7%	106 ± 9%	102 ± 10%	3.61 ± 0.22 ng/mL	3.70 ± 0.50 ng/mL	3.80 ± 0.53 ng/mL	3.32 ± 0.30 ng/mL	235 ± 106 pg/mL	215 ± 89 pg/mL	IL-6 (pg/mL) secretion (IL-6; 5 μg/mL, 50 ng/mL LPS 48 hours): 209 ± 89 pg/mL; IL-6 (pg/mL) secretion (IL-6; [6]): 179 ± 91 pg/mL; IC50 (IL-6): 25 µg/mL (≈ 85.5 µM)
